Test results taken from patent publication US10889553B2, “Asymmetric triazole benzamide derivatives and the compositions and methods of treatment regarding the same” (NysnoBio Ireland DAC, priority 2017, dated 2021).
Several values for one entry are separate records, joined by “and”; a condition that tells them apart may be missing. Equal entries are not always repeated.

Each molecule was assayed against T1, Parkin ligase (Homo sapiens, UniProt O60260) (assay: Activity-Based Probe Assay using Ubiquitin vinyl sulfone probe (TR-FRET)). Settings: heat activated Parkin, HA-Ub-VS probe, activation EC50; read-out: Probe Assay EC50 (μM) [Example 2].
T1 sequence (O60260 1-465): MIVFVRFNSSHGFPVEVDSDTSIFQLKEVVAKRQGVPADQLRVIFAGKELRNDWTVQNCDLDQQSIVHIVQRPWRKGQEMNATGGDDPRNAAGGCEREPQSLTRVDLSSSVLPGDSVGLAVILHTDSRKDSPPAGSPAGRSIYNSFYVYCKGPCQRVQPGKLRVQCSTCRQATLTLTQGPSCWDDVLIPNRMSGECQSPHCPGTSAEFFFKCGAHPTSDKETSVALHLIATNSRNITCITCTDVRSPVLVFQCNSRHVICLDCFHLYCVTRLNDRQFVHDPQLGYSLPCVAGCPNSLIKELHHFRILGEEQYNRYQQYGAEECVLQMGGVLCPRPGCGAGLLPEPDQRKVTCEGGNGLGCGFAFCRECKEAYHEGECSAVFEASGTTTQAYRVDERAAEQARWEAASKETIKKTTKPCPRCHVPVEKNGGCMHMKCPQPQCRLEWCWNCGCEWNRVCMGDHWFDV
Format: biochemical
Procedure, shortened: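 Heat-activated His-Parkin (5 min, 58 °C; 40 nM) was preincubated 15 min with compound, then reacted 60 min at 22 °C with 70 nM HA-Ub-VS in 50 mM HEPES pH 8.5, 150 mM NaCl, 0.01% Tween 20, 0.1% BSA. Probe labelling was read by anti-His-Eu/anti-HA-XL665 TR-FRET (665/615 ratio). % activation was normalized to DMSO and 100 nM control activator, then fitted with a four-parameter curve (Bottom=0, Top=100).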
`O=C(Nc1nc(NC(=O)c2ccccn2)n(-c2ccccc2)n1)c1ccccn1` [Compound 41] showed an EC50 of 2 µM.
`Cc1ccccc1C(=O)Nc1nc(NC(=O)c2ccccc2C)n(-c2ccccc2F)n1` [Compound 32] showed an EC50 of 9 µM.
In the case of `Cc1ccccc1C(=O)Nc1nc(NC(=O)c2ccccc2C)n(-c2ccc(F)c(F)c2)n1` [Compound 24], the EC50 was 3 µM.
Work on `Cc1ccccc1C(=O)Nc1nc(NC(=O)c2ccccc2C)n(-c2ccc(N3CCCCC3)cc2)n1` [Compound 44] yielded an EC50 of 3 µM.
With `Cc1ccccc1C(=O)Nc1nc(NC(=O)c2ccccc2C)n(-c2ccc(C#N)cc2)n1` [Compound 35] the EC50 was 3 µM.
Molecule `Cc1ccccc1C(=O)Nc1nc(NC(=O)c2ccncc2)nn1-c1ccccc1` [Compound 34] has an EC50 of 2 µM.
`O=C(Nc1nc(NC(=O)c2cccnc2)n(-c2ccccc2)n1)c1cccnc1` [Compound 40] showed an EC50 of 1 µM.
In the case of `Cc1ccccc1C(=O)Nc1nc(NC(=O)c2ccccc2C)n(-c2ccc(C(F)(F)F)cc2)n1` [Compound 25], the EC50 was 0.9 µM and 2 µM.
With `Cc1ccccc1C(=O)Nc1nc(NCc2ccccc2)nn1-c1ccc(C(F)(F)F)cc1` [Compound 102] the EC50 was 2 µM.
For `Cc1ccccc1C(=O)Nc1nc(NC(=O)c2ccccc2C)n(-c2ccc(OC(F)(F)F)cc2)n1` [Compound 42, N,N′-(1-(4-(trifluoromethoxy)phenyl)-1H-1,2,4-triazole-3,5-diyl)bis(2-methylbenzamide)], the EC50 was 1 µM and 3 µM.
`COc1ccc(C(=O)Nc2nc(NC(=O)c3ccc(OC)cc3)n(-c3ccccc3)n2)cc1` [Compound 37] gave an EC50 of 4 µM.
In the case of `Cc1ccccc1C(=O)Nc1nc(NC(=O)c2ccccc2C)n(-c2cccc(Cl)c2)n1` [Compound 36], the EC50 was 3 µM and 4 µM.
`O=C(Nc1nc(NC(=O)c2ccncc2)n(-c2ccccc2)n1)c1ccncc1` [Compound 33] gave an EC50 of 3 µM.
With `Cc1ccnc(-c2nc(NC(=O)c3ccccc3C)n(-c3ccccc3)n2)c1` [Compound 124] the EC50 was 3 µM.
`Cc1ccccc1C(=O)Nc1nc(NC(=O)c2ccccc2C)n(-c2cccc(F)c2)n1` [Compound 39] gave an EC50 of 4 µM.
`Cc1ccccc1C(=O)Nc1nc(NC(=O)c2cccnc2)nn1-c1ccccc1` [Compound 6] was tested, and the EC50 was 2 µM.
Work on `Cc1cccc(-n2nc(NC(=O)c3ccccc3C)nc2NC(=O)c2ccccc2C)c1` [Compound 38] yielded an EC50 of 5 µM.
For `Cc1ccccc1C(=O)Nc1nc(NC(=O)C2CCCN2)nn1-c1ccccc1` (stereo not drawn) [Compound 20], the EC50 was 2 µM.
`Cc1ccccc1C(=O)Nc1nc(NC(=O)c2ccccn2)nn1-c1ccccc1` [Compound 16] was tested, and the EC50 was 3 µM.
Molecule `C#Cc1ccc(C(=O)Nc2nc(NC(=O)c3cccc(N=[N+]=[N-])c3)n(-c3ccccc3)n2)cc1` [Compound 2] has an EC50 of 4 µM.
`Cc1ccccc1C(=O)Nc1nc(NC(=O)c2ccno2)n(-c2ccccc2)n1` [Compound 7] gave an EC50 of 12 µM.
`Cc1ccccc1C(=O)Nc1nc(NC(=O)c2ccccc2C)n(-c2ccc(F)cc2F)n1` [Compound 46] was tested, and the EC50 was 6 µM.
With `Cc1ccccc1C(=O)Nc1nc(NC(=O)c2cnccn2)n(-c2ccccc2)n1` [Compound 17] the EC50 was 10 µM.
In the case of `Cc1ccc(-n2nc(NC(=O)c3ccccc3C)nc2NC(=O)c2ccccc2C)cc1` [Compound 31], the EC50 was 4 µM.
With `Cc1ccccc1C(=O)Nc1nc(NC(=O)c2ccccc2C)n(-c2ccccc2Cl)n1` [Compound 26] the EC50 was 6 µM.
`Cc1ccc(C(=O)Nc2nc(NC(=O)c3ccc(C)cc3)n(-c3ccccc3)n2)cc1` [Compound 21] showed an EC50 of 5 µM.
With `COc1ccccc1C(=O)Nc1nc(NC(=O)c2ccccc2OC)n(-c2ccccc2)n1` [Compound 23] the EC50 was 10 µM.
